Experimental data published in ChEMBL document CHEMBL1124969, “GABA agonists and uptake inhibitors. Synthesis, absolute stereochemistry, and enantioselectivity of (R)-(-)- and (S)-(+)-homo-beta-proline” (J Med Chem, 1990).

Assays:
[1] = target: GABA B receptor (Rattus norvegicus, UniProt O88871+Q9Z0U4); test: In vitro binding affinity against Gamma-aminobutyric acid type B receptor in rat brain synaptic membranes at pH 7.4; type: cell membranes
[2] = target: GABA-A receptor; anion channel; test: In vitro binding affinity against Gamma-aminobutyric acid A receptor in rat brain synaptic membranes at pH 7.1; type: cell membranes

Chain of GABA B receptor (Q9Z0U4 whole entry): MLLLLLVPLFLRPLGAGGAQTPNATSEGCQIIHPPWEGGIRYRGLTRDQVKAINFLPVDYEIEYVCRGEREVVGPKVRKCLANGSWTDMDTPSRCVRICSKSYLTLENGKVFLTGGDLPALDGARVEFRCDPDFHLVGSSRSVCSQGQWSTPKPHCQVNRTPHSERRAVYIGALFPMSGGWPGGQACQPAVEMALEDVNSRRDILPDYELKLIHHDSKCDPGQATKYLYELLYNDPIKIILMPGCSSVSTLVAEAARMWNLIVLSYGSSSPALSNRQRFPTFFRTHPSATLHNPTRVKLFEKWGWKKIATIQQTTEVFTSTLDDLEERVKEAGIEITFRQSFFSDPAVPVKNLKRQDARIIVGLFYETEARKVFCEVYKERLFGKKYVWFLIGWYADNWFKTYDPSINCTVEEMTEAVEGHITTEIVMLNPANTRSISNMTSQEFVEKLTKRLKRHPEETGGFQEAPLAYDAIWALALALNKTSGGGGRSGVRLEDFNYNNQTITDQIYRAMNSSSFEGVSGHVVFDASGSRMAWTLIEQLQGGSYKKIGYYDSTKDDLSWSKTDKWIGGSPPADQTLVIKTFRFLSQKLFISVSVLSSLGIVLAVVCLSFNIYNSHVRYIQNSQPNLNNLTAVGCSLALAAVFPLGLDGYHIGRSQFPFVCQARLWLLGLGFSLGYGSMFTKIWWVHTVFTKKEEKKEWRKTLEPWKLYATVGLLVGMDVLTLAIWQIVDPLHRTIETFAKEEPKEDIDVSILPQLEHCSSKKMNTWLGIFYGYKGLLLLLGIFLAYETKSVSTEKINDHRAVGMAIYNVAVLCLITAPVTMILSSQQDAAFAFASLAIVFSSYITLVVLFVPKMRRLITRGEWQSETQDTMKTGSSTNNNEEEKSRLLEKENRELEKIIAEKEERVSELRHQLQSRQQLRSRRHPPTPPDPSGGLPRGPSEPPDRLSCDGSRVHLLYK
Chain of GABA B receptor (O88871 whole entry): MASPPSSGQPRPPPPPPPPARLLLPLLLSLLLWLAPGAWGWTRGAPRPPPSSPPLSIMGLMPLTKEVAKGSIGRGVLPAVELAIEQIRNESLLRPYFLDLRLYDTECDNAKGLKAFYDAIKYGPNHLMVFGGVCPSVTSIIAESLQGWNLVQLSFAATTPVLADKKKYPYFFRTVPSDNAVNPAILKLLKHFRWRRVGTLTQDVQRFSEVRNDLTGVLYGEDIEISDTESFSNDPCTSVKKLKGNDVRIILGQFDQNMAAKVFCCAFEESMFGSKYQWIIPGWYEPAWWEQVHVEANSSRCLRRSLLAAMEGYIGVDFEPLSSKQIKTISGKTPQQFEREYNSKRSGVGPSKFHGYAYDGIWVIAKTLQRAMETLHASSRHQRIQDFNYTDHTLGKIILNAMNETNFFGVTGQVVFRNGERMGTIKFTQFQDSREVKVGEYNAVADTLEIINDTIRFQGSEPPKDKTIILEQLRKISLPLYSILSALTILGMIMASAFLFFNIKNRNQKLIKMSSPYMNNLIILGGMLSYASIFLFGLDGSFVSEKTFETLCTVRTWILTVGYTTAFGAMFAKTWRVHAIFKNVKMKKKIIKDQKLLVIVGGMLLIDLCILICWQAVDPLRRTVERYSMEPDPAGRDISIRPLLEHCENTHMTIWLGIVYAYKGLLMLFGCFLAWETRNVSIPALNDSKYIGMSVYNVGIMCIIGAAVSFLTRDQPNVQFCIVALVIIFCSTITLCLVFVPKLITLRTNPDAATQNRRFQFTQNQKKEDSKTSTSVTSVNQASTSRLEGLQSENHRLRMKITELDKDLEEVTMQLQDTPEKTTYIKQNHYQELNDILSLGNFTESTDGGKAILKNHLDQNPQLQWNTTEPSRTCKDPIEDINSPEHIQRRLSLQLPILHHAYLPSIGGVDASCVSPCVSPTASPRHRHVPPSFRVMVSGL

IC50 [1] | IC50 [2] | Structure (SMILES)
> 100000 nM | 70 nM | O=C(O)C[C@H]1CCNC1
7800 nM | 900 nM | O=C(O)C[C@@H]1CCNC1
14100 nM | 200 nM | O=C(O)CC1CCNC1 (racemic)
